This note sets out measurements from patent US7501430B2 (ArQule, Inc., priority 2006, dated 2009).

The target in this assay is T1, mutant B-RAF (Homo sapiens, UniProt P15056, V600E).
T1 construct: purchased Upstate (Charlottesville, Va.)
The experiment in a line: RAF biochemical assay (MEK-1 phosphorylation, anti-phospho MEK1/2 detection). The settings on record: for pIC50: read-out: Mutant B-RAF IC50; for inhibition at 10 µM: read-out: Mutant B-RAF % inhibition. A digest of the protocol:
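Detection is by ELISA: after a 30 min room-temperature reaction, plate-captured GST-MEK-1 is probed with anti-phospho MEK1/2, then an AP-tagged secondary antibody with fluorescent Attophos read-out.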

pIC50: −log10 of the molar value.

T1 sequence (P15056 whole entry V600E): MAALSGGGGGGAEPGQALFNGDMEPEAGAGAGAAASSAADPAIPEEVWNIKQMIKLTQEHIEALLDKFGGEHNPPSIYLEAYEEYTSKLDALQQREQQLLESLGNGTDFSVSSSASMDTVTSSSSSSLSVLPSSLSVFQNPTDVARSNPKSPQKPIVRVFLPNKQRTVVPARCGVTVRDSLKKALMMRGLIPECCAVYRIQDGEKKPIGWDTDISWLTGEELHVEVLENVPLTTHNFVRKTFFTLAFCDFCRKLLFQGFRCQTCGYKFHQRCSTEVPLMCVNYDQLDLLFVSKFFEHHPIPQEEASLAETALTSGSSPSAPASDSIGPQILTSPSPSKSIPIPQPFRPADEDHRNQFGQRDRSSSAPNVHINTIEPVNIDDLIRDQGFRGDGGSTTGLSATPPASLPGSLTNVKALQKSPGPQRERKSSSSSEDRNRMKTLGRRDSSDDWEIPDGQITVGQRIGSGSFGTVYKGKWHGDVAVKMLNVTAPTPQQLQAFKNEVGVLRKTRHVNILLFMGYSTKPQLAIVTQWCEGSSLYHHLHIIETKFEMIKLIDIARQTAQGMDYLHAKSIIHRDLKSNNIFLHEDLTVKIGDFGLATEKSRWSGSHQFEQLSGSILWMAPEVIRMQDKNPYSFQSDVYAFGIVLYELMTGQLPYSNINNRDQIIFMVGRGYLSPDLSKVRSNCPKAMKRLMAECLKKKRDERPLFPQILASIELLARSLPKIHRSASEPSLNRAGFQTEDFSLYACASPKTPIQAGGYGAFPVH

One may read the pIC50 as the IC50 on a negative log10 scale, so that one unit is a factor of ten. Regarding `COc1ccc(-c2nc3sccn3c2-c2ccnc(NC3CCN(S(=O)(=O)c4ccc(Cl)cc4)CC3)n2)cc1` [Example 262, N-{1-[(4-chlorophenyl)sulfonyl]piperidin-4-yl}-4-[6-(4-methoxyphenyl)imidazo[2,1-b][1,3]thiazol-5-yl]pyrimidin-2-amine], the pIC50 is less than 5.52.

`COc1cccc(-c2nc3sccn3c2-c2ccnc(NC3CCN(S(=O)(=O)c4ccc(Cl)cc4)CC3)n2)c1` [Example 263, N-{1-[(4-chlorophenyl)sulfonyl]piperidin-4-yl}-4-[6-(3-methoxyphenyl)imidazo[2,1-b][1,3]thiazol-5-yl]pyrimidin-2-amine]: the pIC50 is less than 5.30.

By inhibition is commonly meant how much of the control response was suppressed. For `O=S(=O)(c1ccc(Cl)cc1)N1CCC(Nc2nccc(-c3c(-c4ccc(O)cc4)nc4sccn34)n2)CC1` [Example 264, 4-{5-[2-({1-[(4-chlorophenyl)sulfonyl]piperidin-4-yl}amino)pyrimidin-4-yl]imidazo[2,1-b][1,3]thiazol-6-yl}phenol], the inhibition at 10 µM came to 5%.

Turning to `O=S(=O)(c1ccc(Cl)cc1)N1CCC(Nc2nccc(-c3c(-c4ccc(F)c(F)c4)nc4sccn34)n2)CC1` [Example 265, N-{1-[(4-chlorophenyl)sulfonyl]piperidin-4-yl}-4-[6-(3,4-difluorophenyl)imidazo[2,1-b][1,3]thiazol-5-yl]pyrimidin-2-amine], the pIC50 is less than 5.52.

Regarding `O=S(=O)(c1ccc(F)cc1)N1CCC(Nc2nccc(-c3c(-c4cccc(O)c4)nc4sccn34)n2)CC1` [Example 266, 3-{5-[2-({1-[(4-fluorophenyl)sulfonyl]piperidin-4-yl}amino)pyrimidin-4-yl]imidazo[2,1-b][1,3]thiazol-6-yl}phenol], the pIC50 was 7.54.

In the case of `N#Cc1cccc(-c2nc3sccn3c2-c2ccnc(NC3CCN(S(=O)(=O)c4ccc(Cl)cc4)CC3)n2)c1` [Example 269, 3-{5-[2-({1-[(4-chlorophenyl)sulfonyl]piperidin-4-yl)amino)pyrimidin-4-yl]imidazo[2,1-b][1,3]thiazol-6-yl}benzonitrile], the pIC50 is 5.79.

In the case of `COc1cccc(-c2nc3sccn3c2-c2ccnc(NC3CCN(S(=O)(=O)c4ccc(CCC(=O)O)cc4)CC3)n2)c1` [Example 270, 3-(4-{[4-({4-[6-(3-methoxyphenyl)imidazo[2,1-b][1,3]thiazol-5-yl]pyrimidin-2-yl}amino)piperidin-1-yl]sulfonyl}phenyl)propanoic acid], the pIC50 was 6.50.

As for `N#Cc1cccc(-c2nc3sccn3c2-c2ccnc(NC3CCNCC3)n2)c1` [Example 271, 3-{5-[2-(piperidin-4-ylamino)pyrimidin-4-yl]imidazo[2,1-b][1,3]thiazol-6-yl}benzonitrile], the inhibition at 10 µM was found to be 58%.

As for `COC(=O)CCc1ccc(S(=O)(=O)N2CCC(Nc3nccc(-c4c(-c5cccc(O)c5)nc5sccn45)n3)CC2)cc1` [Example 272, methyl 3-(4-{[4-({4-[6-(3-hydroxyphenyl)imidazo[2,1-b][1,3]thiazol-5-yl]pyrimidin-2-yl}amino)piperidin-1-yl]sulfonyl}phenyl)propanoate], the pIC50 was 8.00.

Turning to `O=C(O)CCc1ccc(S(=O)(=O)N2CCC(Nc3nccc(-c4c(-c5cccc(O)c5)nc5sccn45)n3)CC2)cc1` [Example 273, 3-(4-{[4-({4-[6-(3-hydroxyphenyl)imidazo[2,1-b][1,3]thiazol-5-yl]pyrimidin-2-yl}amino)piperidin-1-yl]sulfonyl}phenyl)propanoic acid], the pIC50 is 8.00.

In the case of `O=[N+]([O-])c1ccccc1-c1nc2sccn2c1-c1ccnc(NC2CCN(S(=O)(=O)c3ccc(Cl)cc3)CC2)n1` [Example 274, N-{1-((4-chlorophenyl)sulfonyl]piperidin-4-yl}-4-[6-(2-nitrophenyl)imidazo[2,1-b][1,3]thiazol-5-yl]pyrimidin-2-amine], the pIC50 was 6.14.

For the compound `Fc1ccc(-c2nc3sccn3c2-c2ccnc(N[C@H]3CCNC3)n2)cc1` [Example 275, 4-[6-(4-fluorophenyl)imidazo[2,1-b][1,3]thiazol-5-yl]-N-[(3S)-pyrrolidin-3-yl]pyrimidin-2-amine], the inhibition at 10 µM amounted to 30%.

`O=S(=O)(c1ccc(Cl)cc1)N1CC[C@H](Nc2nccc(-c3c(-c4ccc(F)cc4)nc4sccn34)n2)C1` [Example 276, N-{(3S)-1-[(4-chlorophenyl)sulfonyl]pyrrolidin-3-yl}-4-[6-(4-fluorophenyl)imidazo[2,1-b][1,3]thiazol-5-yl]pyrimidin-2-amine]: the inhibition at 10 µM was determined as 95%.

For the compound `Fc1ccc(-c2nc3sccn3c2-c2ccnc(N[C@@H]3CCNC3)n2)cc1` [Example 277, 4-[6-(4-fluorophenyl)imidazo[2,1-b][1,3]thiazol-5-yl]-N-[(3R)-pyrrolidin-3-yl]pyrimidin-2-amine], the negative logarithm of the IC50 (pIC50) was 7.36.

Consider `O=S(=O)(c1ccc(Cl)cc1)N1CC[C@@H](Nc2nccc(-c3c(-c4ccc(F)cc4)nc4sccn34)n2)C1` [Example 278, N-{(3R)-1-[(4-chlorophenyl)sulfonyl]pyrro-lidin-3-yl}-4-[6-(4-fluorophenyl)imidazo[2,1-b][1,3]thiazol-5-yl]pyrimidin-2-amine], for which the inhibition at 10 µM came out at 10%.

Regarding `COc1cccc(-c2nc3sccn3c2-c2ccnc(N[C@@H]3CCNC3)n2)c1` [Example 279, 4-[6-(3-methoxyphenyl)imidazo[2,1-b][1,3]thiazol-5-yl]-N-[(3R)-pyrrolidin-3-yl]pyrimidin-2-amine], the inhibition at 10 µM stood at 36%.

`COc1cccc(-c2nc3sccn3c2-c2ccnc(N[C@@H]3CCN(S(=O)(=O)c4ccc(Cl)cc4)C3)n2)c1` [Example 280, N-{(3R)-1-[(4-chlorophenyl)sulfonyl]pyrro-lidin-3-yl}-4-[6-(3-methoxyphenyl)imidazo[2,1-b][1,3]thiazol-5-yl]pyrimidin-2-amine]: the inhibition at 10 µM was 37%.

On to `COc1cccc(-c2nc3sccn3c2-c2ccnc(N[C@@H]3CCN(S(=O)(=O)c4ccc(C(=O)O)cc4)C3)n2)c1` [Example 281, 4-{[(3R)-3-({4-[6-(3-methoxyphenyl)imidazo[2,1-b][1,3]thiazol-5-yl]pyrimidin-2-yl}amino)pyrrolidin-1-yl]sulfonyl)benzoic acid], for which the pIC50 is less than 5.52.

As to `O=C(O)c1ccc(S(=O)(=O)N2CC[C@@H](Nc3nccc(-c4c(-c5cccc(O)c5)nc5sccn45)n3)C2)cc1` [Example 282, 4-{[(3R)-3-({4-[6-(3-hydroxyphenyl)imidazo[2,1-b][1,3]thiazol-5-yl]pyrimidin-2-yl}amino)pyrrolidin-1-yl]sulfonyl}benzoic acid], the pIC50 is 6.28.

Consider `O=S(=O)(c1ccc(Cl)cc1)N1CC[C@@H](Nc2nccc(-c3c(-c4cccc(O)c4)nc4sccn34)n2)C1` [Example 283, 3-{5-[2-({(3R)-1-[(4-chlorophenyl)sulfonyl]pyrro-lidin-3-yl}amino)pyrimidin-4-yl]imidazo[2,1-b][1,3]thiazol-6-yl}phenol], for which the pIC50 was 5.80.

On to `N#Cc1cccc(-c2nc3sccn3c2-c2ccnc(N[C@@H]3CCNC3)n2)c1` [Example 284, 3-(5-{2-[(3R)-pyrrolidin-3-ylamino]pyrimidin-4-yl}imidazo[2,1-b][1,3]thiazol-6-yl)benzonitrile], for which the inhibition at 10 µM is 61%.

In the case of `N#Cc1cccc(-c2nc3sccn3c2-c2ccnc(N[C@@H]3CCN(S(=O)(=O)c4ccc(Cl)cc4)C3)n2)c1` [Example 285, 3-{5-[2-({(3R)-1-[(4-chlorophenyl)sulfonyl]pyrrolidin-3-yl}amino)pyrimidin-4-yl]imidazo[2,1-b][1,3]thiazol-6-yl}benzonitrile], the inhibition at 10 µM stood at 35%.

With `Fc1ccc(-c2nc3sccn3c2-c2ccnc(NC3CNC3)n2)cc1` [Example 287, N-azetidin-3-yl-4-[6-(4-fluorophenyl)imidazo[2,1-b][1,3]thiazol-5-yl]pyrimidin-2-amine], the pIC50 is 5.60.

For `O=S(=O)(c1ccc(Cl)cc1)N1CCC[C@@H](Nc2nccc(-c3c(-c4cccc(O)c4)nc4sccn34)n2)C1` [Example 288, 3-{5-[2-({(3R)-1-[(4-chlorophenyl)sulfonyl]piperidin-3-yl}amino)pyrimidin-4-yl]imidazo[2,1-b][1,3]thiazol-6-yl}phenol], the pIC50 is 8.70.

Consider `CC(=O)N1CCC(Nc2nccc(-c3c(-c4ccc(F)cc4)nc4sccn34)n2)CC1` [Example 291, N-(1-acetylpiperidin-4-yl)-4-[6-(4-fluorophenyl)imidazo[2,1-b][1,3]thiazol-5-yl]pyrimidin-2-amine], for which the inhibition at 10 µM was determined as 41%.

As to `Fc1ccc(CN2CCC(Nc3nccc(-c4c(-c5ccc(F)cc5)nc5sccn45)n3)CC2)cc1` [Example 293, N-[1-(4-fluorobenzyl)piperidin-4-yl]-4-[6-(4-fluorophenyl)imidazo[2,1-b][1,3]thiazol-5-yl]pyrimidin-2-amine], the inhibition at 10 µM turned out to be 14%.

Turning to `CCNC(=O)N1CCC(Nc2nccc(-c3c(-c4ccc(F)cc4)nc4sccn34)n2)CC1` [Example 294, N-ethyl-4-({4-[6-(4-fluorophenyl)imidazo[2,1-b][1,3]thiazol-5-yl]pyrimidin-2-yl}amino)piperidine-1-carboxamide], the pIC50 was 7.39.

As for `O=C(Nc1ccc(F)cc1)N1CCC(Nc2nccc(-c3c(-c4ccc(F)cc4)nc4sccn34)n2)CC1` [Example 295, N-(4-fluorophenyl)-4-({4-[6-(4-fluorophenyl)imidazo[2,1-b][1,3]thiazol-5-yl]pyrimidin-2-yl}amino)piperidine-1-carboxamide], the inhibition at 10 µM turned out to be 49%.

With `CS(=O)(=O)N1CCC(Nc2nccc(-c3c(-c4ccc(F)cc4)nc4occn34)n2)CC1` [Example 299, 4-[6-(4-fluorophenyl)imidazo[2,1-b][1,3]oxazol-5-yl]-N-[1-(methylsulfonyl)piperidin-4-yl]pyrimidin-2-amine], the inhibition at 10 µM was 55%.

In the case of `Fc1ccc(-c2nc3occn3c2-c2ccnc(NC3CCNCC3)n2)c(F)c1` [Example 300, 4-[6-(2,4-difluorophenyl)imidazo[2,1-b][1,3]oxazol-5-yl]-N-piperidin-4-ylpyrimidin-2-amine], the inhibition at 10 µM is 65%.
